Results published in US8753691B2, “Antiviral colloidal silver composition” (priority 1999, dated 2014).
In brackets after ≈: the same amount, converted by molar mass. Several values for one entry are separate records, joined by “and”; a condition that tells them apart may be missing. Identical values can stand only once. Like-named read-outs stand apart in the source and are kept apart here.

Legend:
[1] = biological target: Moloney murine leukemia virus reverse transcriptase (MoMuLV) (Moloney murine leukemia virus, UniProt P03355); assay: Test of reverse transcriptase inhibition; details: 3 μl inhibitor; 37° C. 2 hours; AZT at 0.625 microgram/ml
[2] = tested on: S. faecalis; assay: MIC/MBC broth microdilution; type: cell-based
[3] = tested on: S. aureus; assay: MIC/MBC broth microdilution; type: cell-based
[4] = tested on: S. pyogenes; assay: MIC/MBC broth microdilution; type: cell-based
[5] = tested on: S arizona; assay: MIC/MBC broth microdilution; type: cell-based; details: for MBC: read-out: MBC (minimum bactericidal concentration); for MIC: read-out: MIC (minimum inhibitory concentration)
[6] = tested on: P. aeruginosa; assay: MIC/MBC broth microdilution; type: cell-based
[7] = tested on: S. boydii; assay: MIC/MBC broth microdilution; type: cell-based; details: for MBC: read-out: MBC (minimum bactericidal concentration)
[8] = tested on: S. mutans; assay: MIC/MBC broth microdilution; type: cell-based
[9] = tested on: S gordonii; assay: MIC/MBC broth microdilution; type: cell-based; details: for MIC: read-out: MIC (minimum inhibitory concentration)
[10] = tested on: K. oxytoca; assay: MIC/MBC broth microdilution; type: cell-based
[11] = tested on: S. pneumoniae; assay: MIC/MBC broth microdilution; type: cell-based
[12] = tested on: E. aerogenes; assay: MIC/MBC broth microdilution; type: cell-based
[13] = tested on: S. typhimurium; assay: MIC/MBC broth microdilution; type: cell-based; details: for MBC: read-out: MBC (minimum bactericidal concentration)
[14] = tested on: K. pneumoniae; assay: MIC/MBC broth microdilution; type: cell-based
[15] = tested on: E. coli; assay: MIC/MBC broth microdilution; type: cell-based
[16] = tested on: E. cloacae; assay: MIC/MBC broth microdilution; type: cell-based
[17] = tested on: Salmonella choleraesuis ATCC #10708; details: 5, 10 or 15 min
Experimental: (§1) At 30 second intervals, 0.5 ml of each challenge culture was added to the appropriate dilutions of phenol, agitated, and replaced into the water bath: After the appropriate exposure times of 5, 10, and 15 minutes, a loopful of suspension was removed from the assay tubes and transferred to tubes of letheen broth (LETH).

[18] = tested on: Pseudomonas aeruginosa ATCC #15442
Experimental: as §1

[19] = tested on: Staphylococcus aureus ATCC #6538
Experimental: as §1

Q: Which “% Inhibition (reverse transcriptase)” value [1] does the source give for `Cc1cn([C@H]2C[C@H](N=[N+]=[N-])[C@@H](CO)O2)c(=O)[nH]c1=O` [AZT, zidovudine (AZT)] here?
A: Its value is 31.33% and 18.06%.

Q: What does the source list for `CCN1CCN(C(=O)N[C@@H](C(=O)N[C@@H]2C(=O)N3C(C(=O)O)=C(CSc4nnnn4C)CS[C@H]23)c2ccc(O)cc2)C(=O)C1=O` [Cefaperazone]?
A: MIC (minimum inhibitory concentration) [2]: >5.0 ppm; MBC (minimum bactericidal concentration) [3]: 5.0/5.0 ppm; MIC (minimum inhibitory concentration) [3]: 5.0/5.0 ppm; MBC (minimum bactericidal concentration) [4]: 1.25 ppm; MIC (minimum inhibitory concentration) [4]: 0.313 ppm; MBC (minimum bactericidal concentration) [5]: > 5.0 ppm; MIC (minimum inhibitory concentration) [5]: 0.833 ppm; MBC (minimum bactericidal concentration) [6]: 5.0 ppm; MIC (minimum inhibitory concentration) [6]: 2.5 ppm; MBC (minimum bactericidal concentration) ([7]; S. boydii): 0.625/0.625 ppm; MIC (minimum inhibitory concentration) ([7]; S. boydii): 0.625/0.625 ppm; MBC (minimum bactericidal concentration) [8]: > 5 ppm; MIC (minimum inhibitory concentration) [8]: 1.25 ppm; MBC (minimum bactericidal concentration) [9]: 1.25/1.25 ppm; MIC (minimum inhibitory concentration) [9]: 1.25/1.25 ppm; MBC (minimum bactericidal concentration) [10]: > 5.0 ppm; MIC (minimum inhibitory concentration) [10]: 1.25 ppm; MBC (minimum bactericidal concentration) [11]: 0.313/0.313 ppm; MIC (minimum inhibitory concentration) [11]: 0.313/0.313 ppm; MBC (minimum bactericidal concentration) [12]: > 5.0 ppm; MIC (minimum inhibitory concentration) [12]: 2.92 ppm; MBC (minimum bactericidal concentration) [13]: 2.5 ppm; MIC (minimum inhibitory concentration) [13]: 1.25 ppm; MIC (minimum inhibitory concentration) [14]: >5.0 ppm; MBC (minimum bactericidal concentration) [15]: > 5.0 ppm; MIC (minimum inhibitory concentration) [15]: 0.625 ppm

Q: For `CC[C@H]1OC(=O)[C@H](C)[C@@H](O[C@H]2C[C@@](C)(OC)[C@@H](O)[C@H](C)O2)[C@H](C)[C@@H](O[C@@H]2O[C@H](C)C[C@H](N(C)C)[C@H]2O)[C@](C)(O)C[C@@H](C)C(=O)[C@H](C)[C@@H](O)[C@]1(C)O` [Erythromycin], which MBC [5] is on record?
A: Its MBC is over 5 µg/mL.

Q: What about the MBC ([7]; S. boydii) of the same compound?
A: The MBC was over 5 µg/mL.

Q: And the MIC ([7]; S. boydii, read-out: MIC (minimum inhibitory concentration))?
A: The MIC was 5 µg/mL (≈ 6.81 µM).

Q: And the MIC [9]?
A: Its MIC is 0.005 µg/mL (≈ 0.00681 µM).

Q: For `CC1COc2c(N3CCN(C)CC3)c(F)cc3c(=O)c(C(=O)O)cn1c23` (stereo not shown) [Ofloxacin], which MIC [5] is on record?
A: The MIC was 0.078 µg/mL (≈ 0.216 µM).

Q: What about the MBC ([7]; S. boydii) of the same compound?
A: The MBC was 0.156 µg/mL (≈ 0.432 µM).

Q: And the MBC ([9]; read-out: MBC (minimum bactericidal concentration))?
A: The MBC was 5 µg/mL (≈ 13.8 µM).

Q: And the MIC [9]?
A: The MIC was 2.5 µg/mL (≈ 6.92 µM).

Q: What about the MBC ([12]; Klebsiella aerogenes, read-out: MBC (minimum bactericidal concentration)) of the same compound?
A: Its MBC is 0.156 µg/mL (≈ 0.432 µM).

Q: And the MIC ([12]; Klebsiella aerogenes, read-out: MIC (minimum inhibitory concentration))?
A: The MIC was 0.078 µg/mL (≈ 0.216 µM).

Q: What about the MBC ([13]; Salmonella enterica) of the same compound?
A: The MBC was 0.156 µg/mL (≈ 0.432 µM).

Q: And the MIC ([13]; Salmonella enterica, read-out: MIC (minimum inhibitory concentration))?
A: Its MIC is 0.078 µg/mL (≈ 0.216 µM).

Q: How did the “MBC (minimum bactericidal concentration)” value [2] turn out when `CC1(C)S[C@@H]2[C@H](NC(=O)Cc3ccccc3)C(=O)N2[C@H]1C(=O)O` [Penicillin G] was run?
A: The value was 5.0/>5.0 ppm.

Q: And the “MIC (minimum inhibitory concentration)” value [2]?
A: Its value is 5.0/>5.0 ppm.

Q: What about the “MBC (minimum bactericidal concentration)” value [3] of the same compound?
A: The value was over 5.0 ppm.

Q: And the “MIC (minimum inhibitory concentration)” value [3]?
A: Its value is 2.5 ppm.

Q: What about the “MIC (minimum inhibitory concentration)” value [4] of the same compound?
A: Its value is over 5.0 ppm.

Q: And the “MIC (minimum inhibitory concentration)” value [5]?
A: Its value is over 5.0 ppm.

Q: And the “MBC (minimum bactericidal concentration)” value [6]?
A: The value was over 5.0 ppm.

Q: And the “MIC (minimum inhibitory concentration)” value [6]?
A: Its value is 0.13 ppm.

Q: What about the “MIC (minimum inhibitory concentration)” value [7] of the same compound?
A: Its value is over 5.0 ppm.

Q: And the “MBC (minimum bactericidal concentration)” value [8]?
A: The value was over 5 ppm.

Q: What about the “MIC (minimum inhibitory concentration)” value [8] of the same compound?
A: The value was 0.521 ppm.

Q: What about the “MBC (minimum bactericidal concentration)” value [9] of the same compound?
A: Its value is 0.039 ppm.

Q: And the “MIC (minimum inhibitory concentration)” value [9]?
A: Its value is 0.009 ppm.

Q: And the “MIC (minimum inhibitory concentration)” value [10]?
A: Its value is over 5.0 ppm.

Q: What about the “MBC (minimum bactericidal concentration)” value [11] of the same compound?
A: The value was 0.019/0.019 ppm.

Q: And the “MIC (minimum inhibitory concentration)” value [11]?
A: The value was 0.019/0.019 ppm.

Q: What about the “MIC (minimum inhibitory concentration)” value [12] of the same compound?
A: The value was over 5.0 ppm.

Q: What about the “MIC (minimum inhibitory concentration)” value [13] of the same compound?
A: The value was over 5.0 ppm.

Q: And the “MIC (minimum inhibitory concentration)” value [16]?
A: Its value is over 5.0 ppm.

Q: And the “MIC (minimum inhibitory concentration)” value [14]?
A: The value was over 5.0 ppm.

Q: What about the “MIC (minimum inhibitory concentration)” value [15] of the same compound?
A: The value was over 5.0 ppm.

Q: Which results are given for `CN(C)[C@@H]1C(O)=C(C(N)=O)C(=O)[C@@]2(O)C(O)=C3C(=O)c4c(O)cccc4[C@@](C)(O)[C@H]3C[C@@H]12` [Tetracycline]?
A: MBC [5]: > 5 µg/mL; MIC [5]: 0.625 µg/mL (≈ 1.41 µM); MBC ([7]; S. boydii): > 5 µg/mL; MBC ([10]; Klebsiella oxytoca, read-out: MBC (minimum bactericidal concentration)): > 5 µg/mL; MBC ([13]; Salmonella enterica): > 5 µg/mL

Q: For `Oc1ccccc1` [phenol], which “growth after phenol treatment” value ([17]; 1:90 phenol) is on record?
A: Its value is “no growth”.

Q: And the “growth after phenol treatment” value ([17]; 1:100 phenol)?
A: Its value is “showed growth”.

Q: And the “growth after phenol treatment” value ([18]; 1:80 phenol, 5 or 10 min)?
A: Its value is “showed growth”.

Q: And the “growth after phenol treatment” value ([18]; 1:80 phenol, 15 min)?
A: The value was “no growth”.

Q: What about the “growth after phenol treatment” value ([18]; 1:90 phenol, 5, 10 or 15 min) of the same compound?
A: The value was “showed growth”.

Q: What about the “growth after phenol treatment” value ([19]; 1:60 phenol, 5 or 10 min) of the same compound?
A: Its value is “showed growth”.

Q: And the “growth after phenol treatment” value ([19]; 1:60 phenol, 15 min)?
A: The value was “no growth”.

Q: And the “growth after phenol treatment” value ([19]; 1:70 phenol, 5, 10 or 15 min)?
A: Its value is “showed growth”.
